Source: patent US20010055590A1, “Method for enhancing myoblast migration and invasion in the context of gene therapy” (priority 1999, published 2001)

Tested on: mouse myoblasts
Experiment: Invasion of mouse myoblasts transiently over-expressing MMPs
Type: cell-based
Settings: NAC treatment, n=4
Description: Myoblast migration and invasion were examined using a commercially available in vitro cell migration and invasion assay kit (Biocoat, Becton Dickinson, Franklin Lakes, N.J.) as described by Albini et al. (A rapid in vitro assay for quantitating the invasive potential of tumor cells Cancer Res 47:3239-3245, 1987). Myoblasts were grown to approximately 70% confluence, rinsed three times in serum-free DMEM, followed by incubation for 3 hours in 0.2% bovine serum albumin (BSA) in DMEM to eliminate the effects of serum. Cells were then trypsinized and collected by centrifugation. Cells were resuspended in serum-free DMEM at a density of 1×10^5 cells/ml, and 0.5 ml aliquots of cell suspension were added to the top chamber. […] Fibronectin subfragments of 45 KDa (Sigma), 120 kDa (Gibco), 63 kDa (Retronectin, Takara) and 70 KDa (Sigma) were used alone or in combination. The growth factor concentrations used were those which could produce maximal effects as examined in the present studies by extending from values reported by Bischoff (“Chemotaxis of skeletal muscle satellite cells” Devel. Dynamics 208:505-515, 1997). […] The number of cells per field was counted in 10 randomly selected fields and averaged for each condition. […]

CC(=O)N[C@@H](CS)C(=O)O [NAC, N-acetyl cysteine, reference compound]
invasion relative to non-treated cells (MMP-1 over-expressing myoblasts): 40% | invasion relative to non-treated cells (MMP-2 over-expressing myoblasts): 28%
